Assay results from patent US10597390B2, “Indoles for use in influenza virus infection” (Janssen Sciences Ireland UC, priority 2014, dated 2020).

Test system: influenza virus A/Taiwan/1/86 (H1N1)
Experiment: organism not typed
Assay type: cell-based
Conditions: MDCK, 72 h, CPE in MDCK cells, three days post-virus exposure, ATPlite

Row | SMILES | IC50
1 | Nc1cc(C(=O)N[C@@H]2CCC[C@H](Nc3nc(-c4c[nH]c5c(F)cc(F)cc45)ncc3F)C2)ncn1 [Compound 124] | 7 nM
2 | O=C(N[C@@H]1CCC[C@H](Nc2nc(-c3c[nH]c4c(F)cc(F)cc34)ncc2F)C1)c1cc[nH]n1 [Compound 126] | 2 nM
3 | O=C(N[C@@H]1CCC[C@H](Nc2nc(-c3c[nH]c4c(F)cc(F)cc34)ncc2F)C1)c1ncc[nH]1 [Compound 127] | 1 nM
4 | Cn1cc(Br)nc1C(=O)N[C@@H]1CCC[C@H](Nc2nc(-c3c[nH]c4c(F)cc(F)cc34)ncc2F)C1 [Compound 128] | 10 nM
5 | Cn1cc(C(=O)N[C@@H]2CCC[C@H](Nc3nc(-c4c[nH]c5c(F)cc(F)cc45)ncc3F)C2)nn1 [Compound 130] | 32 nM
6 | Nc1cc(C(=O)N[C@@H]2CCC[C@H](Nc3nc(-c4c[nH]c5c(F)cc(F)cc45)ncc3F)C2)n[nH]1 [Compound 131] | 4 nM
7 | Cc1ocnc1C(=O)N[C@@H]1CCC[C@H](Nc2nc(-c3c[nH]c4c(F)cc(F)cc34)ncc2F)C1 [Compound 132] | 2 nM
8 | Cn1cnc(C(=O)N[C@@H]2CCC[C@H](Nc3nc(-c4c[nH]c5c(F)cc(F)cc45)ncc3F)C2)n1 [Compound 134] | 14 nM
9 | Cc1c[nH]c(C(=O)N[C@@H]2CCC[C@H](Nc3nc(-c4c[nH]c5c(F)cc(F)cc45)ncc3F)C2)n1 [Compound 135] | 2 nM
10 | Cc1cn(C)nc1C(=O)N[C@@H]1CCC[C@H](Nc2nc(-c3c[nH]c4c(F)cc(F)cc34)ncc2F)C1 [Compound 136] | 3 nM
11 | O=C(N[C@@H]1CCC[C@H](Nc2nc(-c3c[nH]c4c(F)cc(F)cc34)ncc2F)C1)c1cncnc1 [Compound 138] | 39 nM
12 | O=C(N[C@@H]1CCC[C@H](Nc2nc(-c3c[nH]c4c(F)cc(F)cc34)ncc2F)C1)C1CCCN1 (stereo partly drawn) [Compound 139] | 2000 nM
13 | Cn1ncnc1C(=O)N[C@@H]1CCC[C@H](Nc2nc(-c3c[nH]c4c(F)cc(F)cc34)ncc2F)C1 [Compound 140] | 7 nM
14 | Cc1[nH]nnc1C(=O)N[C@@H]1CCC[C@H](Nc2nc(-c3c[nH]c4c(F)cc(F)cc34)ncc2F)C1 [Compound 141] | 2 nM
15 | O=C(N[C@@H]1CCC[C@H](Nc2nc(-c3c[nH]c4c(F)cc(F)cc34)ncc2F)C1)c1c[nH]cn1 [Compound 142] | 2 nM
16 | Cn1cnnc1C(=O)N[C@@H]1CCC[C@H](Nc2nc(-c3c[nH]c4c(F)cc(F)cc34)ncc2F)C1 [Compound 143] | 39 nM
17 | Cc1cnc(C(=O)N[C@@H]2CCC[C@H](Nc3nc(-c4c[nH]c5c(F)cc(F)cc45)ncc3F)C2)n1C [Compound 144] | 4 nM
18 | Nc1nc(C(=O)N[C@@H]2CCC[C@H](Nc3nc(-c4c[nH]c5c(F)cc(F)cc45)ncc3F)C2)cs1 [Compound 145] | 2 nM
19 | Nc1n[nH]cc1C(=O)N[C@@H]1CCC[C@H](Nc2nc(-c3c[nH]c4c(F)cc(F)cc34)ncc2F)C1 [Compound 146] | 1 nM
20 | O=C(O)c1n[nH]nc1C(=O)N[C@@H]1CCC[C@H](Nc2nc(-c3c[nH]c4c(F)cc(F)cc34)ncc2F)C1 [Compound 147] | 47 nM
21 | O=C(N[C@@H]1CCC[C@H](Nc2nc(-c3c[nH]c4c(F)cc(F)cc34)ncc2F)C1)[C@H]1CCCN1 [Compound 148] | 600 nM
22 | Cn1nc(C(=O)N[C@@H]2CCC[C@H](Nc3nc(-c4c[nH]c5c(F)cc(F)cc45)ncc3F)C2)cc1N [Compound 149] | 2 nM
23 | Cc1sc(N)nc1C(=O)N[C@@H]1CCC[C@H](Nc2nc(-c3c[nH]c4c(F)cc(F)cc34)ncc2F)C1 [Compound 150] | 3 nM

Test system: not given
Experiment: not given
Conditions: not given

Row | SMILES | melting point
24 | Nc1cc(C(=O)N[C@@H]2CCC[C@H](Nc3nc(-c4c[nH]c5c(F)cc(F)cc45)ncc3F)C2)ncn1 [Compound 124] | 228 °C
25 | O=C(N[C@@H]1CCC[C@H](Nc2nc(-c3c[nH]c4c(F)cc(F)cc34)ncc2F)C1)c1cc[nH]n1 [Compound 126] | > 300 °C
26 | O=C(N[C@@H]1CCC[C@H](Nc2nc(-c3c[nH]c4c(F)cc(F)cc34)ncc2F)C1)c1ncc[nH]1 [Compound 127] | > 300 °C
27 | Cn1cc(Br)nc1C(=O)N[C@@H]1CCC[C@H](Nc2nc(-c3c[nH]c4c(F)cc(F)cc34)ncc2F)C1 [Compound 128] | 176 °C
28 | Cn1cc(C(=O)N[C@@H]2CCC[C@H](Nc3nc(-c4c[nH]c5c(F)cc(F)cc45)ncc3F)C2)nn1 [Compound 130] | > 300 °C
29 | Nc1cc(C(=O)N[C@@H]2CCC[C@H](Nc3nc(-c4c[nH]c5c(F)cc(F)cc45)ncc3F)C2)n[nH]1 [Compound 131] | 245.7 °C
30 | Cc1ocnc1C(=O)N[C@@H]1CCC[C@H](Nc2nc(-c3c[nH]c4c(F)cc(F)cc34)ncc2F)C1 [Compound 132] | 266.7 °C
31 | Cn1cnc(C(=O)N[C@@H]2CCC[C@H](Nc3nc(-c4c[nH]c5c(F)cc(F)cc45)ncc3F)C2)n1 [Compound 134] | 183.2 °C
32 | Cc1c[nH]c(C(=O)N[C@@H]2CCC[C@H](Nc3nc(-c4c[nH]c5c(F)cc(F)cc45)ncc3F)C2)n1 [Compound 135] | 281.9 °C
33 | Cc1cn(C)nc1C(=O)N[C@@H]1CCC[C@H](Nc2nc(-c3c[nH]c4c(F)cc(F)cc34)ncc2F)C1 [Compound 136] | 265.1 °C
34 | O=C(N[C@@H]1CCC[C@H](Nc2nc(-c3c[nH]c4c(F)cc(F)cc34)ncc2F)C1)c1cncnc1 [Compound 138] | > 300 °C
35 | O=C(N[C@@H]1CCC[C@H](Nc2nc(-c3c[nH]c4c(F)cc(F)cc34)ncc2F)C1)C1CCCN1 (stereo partly drawn) [Compound 139] | 208.1 °C
36 | Cn1ncnc1C(=O)N[C@@H]1CCC[C@H](Nc2nc(-c3c[nH]c4c(F)cc(F)cc34)ncc2F)C1 [Compound 140] | 172.7 °C
37 | Cc1[nH]nnc1C(=O)N[C@@H]1CCC[C@H](Nc2nc(-c3c[nH]c4c(F)cc(F)cc34)ncc2F)C1 [Compound 141] | 256.6 °C
38 | O=C(N[C@@H]1CCC[C@H](Nc2nc(-c3c[nH]c4c(F)cc(F)cc34)ncc2F)C1)c1c[nH]cn1 [Compound 142] | 219.9 °C
39 | Cn1cnnc1C(=O)N[C@@H]1CCC[C@H](Nc2nc(-c3c[nH]c4c(F)cc(F)cc34)ncc2F)C1 [Compound 143] | 169.8 °C
40 | Cc1cnc(C(=O)N[C@@H]2CCC[C@H](Nc3nc(-c4c[nH]c5c(F)cc(F)cc45)ncc3F)C2)n1C [Compound 144] | 204.9 °C
41 | Nc1nc(C(=O)N[C@@H]2CCC[C@H](Nc3nc(-c4c[nH]c5c(F)cc(F)cc45)ncc3F)C2)cs1 [Compound 145] | 178.1 °C
42 | Nc1n[nH]cc1C(=O)N[C@@H]1CCC[C@H](Nc2nc(-c3c[nH]c4c(F)cc(F)cc34)ncc2F)C1 [Compound 146] | 169.7 °C
43 | O=C(O)c1n[nH]nc1C(=O)N[C@@H]1CCC[C@H](Nc2nc(-c3c[nH]c4c(F)cc(F)cc34)ncc2F)C1 [Compound 147] | > 300 °C
44 | O=C(N[C@@H]1CCC[C@H](Nc2nc(-c3c[nH]c4c(F)cc(F)cc34)ncc2F)C1)[C@H]1CCCN1 [Compound 148] | 220.8 °C
45 | Cn1nc(C(=O)N[C@@H]2CCC[C@H](Nc3nc(-c4c[nH]c5c(F)cc(F)cc45)ncc3F)C2)cc1N [Compound 149] | 253.4 °C
46 | Cc1sc(N)nc1C(=O)N[C@@H]1CCC[C@H](Nc2nc(-c3c[nH]c4c(F)cc(F)cc34)ncc2F)C1 [Compound 150] | 248.4 °C

Test system: not listed separately
Experiment: in vitro
Conditions: dog, TOX MDCK CC50

Row | SMILES | CC50 at 3 days
47 | Nc1cc(C(=O)N[C@@H]2CCC[C@H](Nc3nc(-c4c[nH]c5c(F)cc(F)cc45)ncc3F)C2)ncn1 [Compound 124] | 11.4 µM
48 | O=C(N[C@@H]1CCC[C@H](Nc2nc(-c3c[nH]c4c(F)cc(F)cc34)ncc2F)C1)c1cc[nH]n1 [Compound 126] | 10 µM
49 | O=C(N[C@@H]1CCC[C@H](Nc2nc(-c3c[nH]c4c(F)cc(F)cc34)ncc2F)C1)c1ncc[nH]1 [Compound 127] | > 100 µM
50 | Cn1cc(Br)nc1C(=O)N[C@@H]1CCC[C@H](Nc2nc(-c3c[nH]c4c(F)cc(F)cc34)ncc2F)C1 [Compound 128] | 5.9 µM
51 | Cn1cc(C(=O)N[C@@H]2CCC[C@H](Nc3nc(-c4c[nH]c5c(F)cc(F)cc45)ncc3F)C2)nn1 [Compound 130] | 3.2 µM
52 | Nc1cc(C(=O)N[C@@H]2CCC[C@H](Nc3nc(-c4c[nH]c5c(F)cc(F)cc45)ncc3F)C2)n[nH]1 [Compound 131] | 19.4 µM
53 | Cc1ocnc1C(=O)N[C@@H]1CCC[C@H](Nc2nc(-c3c[nH]c4c(F)cc(F)cc34)ncc2F)C1 [Compound 132] | 11.4 µM
54 | Cn1cnc(C(=O)N[C@@H]2CCC[C@H](Nc3nc(-c4c[nH]c5c(F)cc(F)cc45)ncc3F)C2)n1 [Compound 134] | 10.3 µM
55 | Cc1c[nH]c(C(=O)N[C@@H]2CCC[C@H](Nc3nc(-c4c[nH]c5c(F)cc(F)cc45)ncc3F)C2)n1 [Compound 135] | 8.4 µM
56 | Cc1cn(C)nc1C(=O)N[C@@H]1CCC[C@H](Nc2nc(-c3c[nH]c4c(F)cc(F)cc34)ncc2F)C1 [Compound 136] | 7.6 µM
57 | O=C(N[C@@H]1CCC[C@H](Nc2nc(-c3c[nH]c4c(F)cc(F)cc34)ncc2F)C1)c1cncnc1 [Compound 138] | > 25 µM
58 | O=C(N[C@@H]1CCC[C@H](Nc2nc(-c3c[nH]c4c(F)cc(F)cc34)ncc2F)C1)C1CCCN1 (stereo partly drawn) [Compound 139] | 11.5 µM
59 | Cn1ncnc1C(=O)N[C@@H]1CCC[C@H](Nc2nc(-c3c[nH]c4c(F)cc(F)cc34)ncc2F)C1 [Compound 140] | > 25 µM
60 | Cc1[nH]nnc1C(=O)N[C@@H]1CCC[C@H](Nc2nc(-c3c[nH]c4c(F)cc(F)cc34)ncc2F)C1 [Compound 141] | 8.4 µM
61 | O=C(N[C@@H]1CCC[C@H](Nc2nc(-c3c[nH]c4c(F)cc(F)cc34)ncc2F)C1)c1c[nH]cn1 [Compound 142] | 10 µM
62 | Cn1cnnc1C(=O)N[C@@H]1CCC[C@H](Nc2nc(-c3c[nH]c4c(F)cc(F)cc34)ncc2F)C1 [Compound 143] | 9.9 µM
63 | Cc1cnc(C(=O)N[C@@H]2CCC[C@H](Nc3nc(-c4c[nH]c5c(F)cc(F)cc45)ncc3F)C2)n1C [Compound 144] | 7.2 µM
64 | Nc1nc(C(=O)N[C@@H]2CCC[C@H](Nc3nc(-c4c[nH]c5c(F)cc(F)cc45)ncc3F)C2)cs1 [Compound 145] | 6.8 µM
65 | Nc1n[nH]cc1C(=O)N[C@@H]1CCC[C@H](Nc2nc(-c3c[nH]c4c(F)cc(F)cc34)ncc2F)C1 [Compound 146] | 10.7 µM
66 | O=C(O)c1n[nH]nc1C(=O)N[C@@H]1CCC[C@H](Nc2nc(-c3c[nH]c4c(F)cc(F)cc34)ncc2F)C1 [Compound 147] | > 25 µM
67 | O=C(N[C@@H]1CCC[C@H](Nc2nc(-c3c[nH]c4c(F)cc(F)cc34)ncc2F)C1)[C@H]1CCCN1 [Compound 148] | 10.3 µM
68 | Cn1nc(C(=O)N[C@@H]2CCC[C@H](Nc3nc(-c4c[nH]c5c(F)cc(F)cc45)ncc3F)C2)cc1N [Compound 149] | 10 µM
69 | Cc1sc(N)nc1C(=O)N[C@@H]1CCC[C@H](Nc2nc(-c3c[nH]c4c(F)cc(F)cc34)ncc2F)C1 [Compound 150] | 4.8 µM
